The values that follow come from PubChem BioAssay AID226 (DTP/NCI, 2004).

In this experiment the test system is B6C3F1 mice, intracerebral ependymoblastoma, median survival T/C. Nature of the experiment: NCI In Vivo Anticancer Drug Screen. Data for tumor model Ependymoblastoma (intracerebral) in B6C3F1 mice. The note with it: endpoint: median survival time, higher = longer survival. As to the method:
The antitumor activity of compounds was measured in mice bearing transplantable tumors. Survival or tumor size were measured and the results are expressed as the measurement made in the treated group (T) divided by the measurement made in the vehicle treated control group (C). The tumor model used in this assay is Ependymoblastoma (intracerebral) in B6C3F1 mice

Setting [1] is: dose: 16.0 mg/kg/injection, schedule: Q01DX005 (ip), vehicle: saline with Tween-80.
[2] abbreviates: dose: 32.0 mg/kg/injection, schedule: Q01DX005 (ip), vehicle: saline with Tween-80.
[3] abbreviates: dose: 64.0 mg/kg/injection, schedule: Q01DX005 (ip), vehicle: saline with Tween-80.
The mark [4] stands for this setting: dose: 128.0 mg/kg/injection, schedule: Q01DX005 (ip), vehicle: saline with Tween-80.
Setting [5] is: dose: 256.0 mg/kg/injection, schedule: Q01DX005 (ip), vehicle: saline with Tween-80.
Setting [6] is: dose: 512.0 mg/kg/injection, schedule: Q01DX005 (ip), vehicle: saline with Tween-80.
The mark [7] stands for this setting: dose: 50.0 mg/kg/injection, schedule: Q01DX005 (ip), vehicle: saline.
Setting [8] is: dose: 100.0 mg/kg/injection, schedule: Q01DX005 (ip), vehicle: Klucel (hydroxypropylcellulose) (HPC).
The mark [9] stands for this setting: dose: 200.0 mg/kg/injection, schedule: Q01DX005 (ip), vehicle: Klucel (hydroxypropylcellulose) (HPC).
[10] abbreviates: dose: 200.0 mg/kg/injection, schedule: Q01DX005 (ip), vehicle: saline.

Molecules are shown by their SMILES. “And” between values parts separate entries of the source, which are not always exact repeats. Equal values may be shown once. Inconclusive results and toxic doses are left out.

Regarding `Nc1nc(=S)c2ncn(C3CC(O)C(CO)O3)c2[nH]1` (stereo not given), the T/C runs as follows: (dose: 4.0 mg/kg/injection, schedule: Q01DX005 (ip), vehicle: saline with Tween-80) 93 % of control and 96 % of control; (dose: 8.0 mg/kg/injection, schedule: Q01DX005 (ip), vehicle: saline with Tween-80) 103 % of control; under setting [1], 92 % of control; under setting [2], 91 % of control and 102 % of control; under setting [3], 100 % of control and 90 % of control.
For `O=C(N/N=C\c1cc(Br)cc(Br)c1O)N/N=C/c1cc(Br)cc(Br)c1O`, the T/C reads like this: under setting [2], 109 % of control; under setting [3], 106 % of control; under setting [4], 105 % of control; under setting [5], 106 % of control; under setting [6], 99 % of control.
Consider `CCCCCCC(=O)O[C@H]1CC[C@H]2[C@@H]3CCC4=CC(=O)CC[C@]4(C)[C@H]3CC[C@]12C`, for which the T/C is, setting by setting: (dose: 8.0 mg/kg/injection, schedule: Q01DX005 (ip), vehicle: Klucel (hydroxypropylcellulose) (HPC)) 101 % of control and 110 % of control; (dose: 16.0 mg/kg/injection, schedule: Q01DX005 (ip), vehicle: Klucel (hydroxypropylcellulose) (HPC)) 92 % of control and 100 % of control; (dose: 32.0 mg/kg/injection, schedule: Q01DX005 (ip), vehicle: Klucel (hydroxypropylcellulose) (HPC)) 95 % of control and 110 % of control; (dose: 64.0 mg/kg/injection, schedule: Q01DX005 (ip), vehicle: Klucel (hydroxypropylcellulose) (HPC)) 108 % of control and 89 % of control; (dose: 128.0 mg/kg/injection, schedule: Q01DX005 (ip), vehicle: Klucel (hydroxypropylcellulose) (HPC)) 95 % of control and 96 % of control; (dose: 256.0 mg/kg/injection, schedule: Q01DX005 (ip), vehicle: Klucel (hydroxypropylcellulose) (HPC)) 97 % of control.
With `OC(CBr)C(O)C(O)C(O)CBr` (stereo not given), the T/C (dose: 2.0 mg/kg/injection, schedule: Q01DX005 (ip), vehicle: Klucel (hydroxypropylcellulose) (HPC)) was 102 % of control; the T/C (dose: 4.0 mg/kg/injection, schedule: Q01DX005 (ip), vehicle: Klucel (hydroxypropylcellulose) (HPC)) is 106 % of control; the T/C under setting [7] is 122 % of control; the T/C under setting [8] was 97 % of control; the T/C under setting [9] was 109 % of control; the T/C under setting [10] was 118 % of control and 195 % of control and 233 % of control.
For `CN(C)C=O`, the T/C is 92 % of control and 112 % of control under setting [7]; 96 % of control and 98 % of control and 115 % of control (dose: 100.0 mg/kg/injection, schedule: Q01DX005 (ip), vehicle: saline); 94 % of control and 99 % of control and 109 % of control under setting [10]; 94 % of control and 99 % of control and 113 % of control (dose: 400.0 mg/kg/injection, schedule: Q01DX005 (ip), vehicle: saline); 93 % of control and 102 % of control and 105 % of control (dose: 800.0 mg/kg/injection, schedule: Q01DX005 (ip), vehicle: saline); 93 % of control (dose: 1600.0 mg/kg/injection, schedule: Q01DX005 (ip), vehicle: saline). Moreover, the T/C (dose: 2400.0 mg/kg/injection, schedule: Q01DX005 (ip), vehicle: saline) is 97 % of control.
With `Cc1cc2nc3ccc(N)cc3oc-2cc1=[N+](C)C`, the T/C is, setting by setting: (dose: 6.25 mg/kg/injection, schedule: Q01DX005 (ip), vehicle: saline) 106 % of control; (dose: 12.5 mg/kg/injection, schedule: Q01DX005 (ip), vehicle: saline) 105 % of control; (dose: 25.0 mg/kg/injection, schedule: Q01DX005 (ip), vehicle: saline) 102 % of control; under setting [7], 91 % of control.
As for `Nc1nc2c(c(=O)[nH]1)N(C=O)C(CNc1ccc(C(=O)N[C@@H](CCC(=O)O)C(=O)O)cc1)CN2` (stereo not given in full), the T/C reads like this: under setting [4], 101 % of control; (dose: 128.0 mg/kg/injection, schedule: Q01DX005 (ip), vehicle: saline) 104 % of control; (dose: 150.0 mg/kg/injection, schedule: Q04DX003 (ip), vehicle: saline) 104 % of control; under setting [5], 96 % of control; (dose: 256.0 mg/kg/injection, schedule: Q01DX005 (ip), vehicle: saline) 98 % of control; (dose: 300.0 mg/kg/injection, schedule: Q04DX003 (ip), vehicle: saline) 115 % of control. For the same molecule, the T/C is 101 % of control under setting [6]; 96 % of control (dose: 512.0 mg/kg/injection, schedule: Q01DX005 (ip), vehicle: saline); 101 % of control (dose: 600.0 mg/kg/injection, schedule: Q04DX003 (ip), vehicle: saline); 115 % of control (dose: 1200.0 mg/kg/injection, schedule: Q04DX003 (ip), vehicle: saline).
On to `CN1C(=O)CC(c2ccc(NC(=O)N(CCCl)N=O)cc2)C1=O` (stereo not given), for which the T/C was 119 % of control (dose: 0.75 mg/kg/injection, schedule: Q01DX005 (ip), vehicle: distilled water + Tween-80); 180 % of control (dose: 1.5 mg/kg/injection, schedule: Q01DX005 (ip), vehicle: distilled water + Tween-80); 210 % of control (dose: 6.0 mg/kg/injection, schedule: Q01DX005 (ip), vehicle: distilled water + Tween-80); 240 % of control (dose: 12.0 mg/kg/injection, schedule: Q01DX005 (ip), vehicle: distilled water + Tween-80).
With `CC/C(=C(/CC)c1ccc(O)cc1)c1ccc(O)cc1`, the T/C under setting [1] was 102 % of control, the T/C under setting [2] was 102 % of control, the T/C under setting [3] was 109 % of control and the T/C under setting [4] is 104 % of control.
As for `CC(=O)NNC(=O)c1ccccn1`, the T/C is 101 % of control and 110 % of control under setting [8]; 92 % of control and 90 % of control under setting [9]; 95 % of control and 103 % of control (dose: 400.0 mg/kg/injection, schedule: Q01DX005 (ip), vehicle: Klucel (hydroxypropylcellulose) (HPC)).
In the case of `CN=NNc1nc[nH]c1C(N)=O`, the T/C (dose: 8.0 mg/kg/injection, schedule: Q01DX005 (ip), vehicle: saline) is 99 % of control; the T/C (dose: 16.0 mg/kg/injection, schedule: Q01DX005 (ip), vehicle: saline) was 106 % of control; the T/C (dose: 32.0 mg/kg/injection, schedule: Q01DX005 (ip), vehicle: saline) is 110 % of control; the T/C (dose: 64.0 mg/kg/injection, schedule: Q01DX005 (ip), vehicle: saline) was 123 % of control.
In the case of `N[C@@H](Cc1ccc(N(CCCl)CCCl)cc1)C(=O)O`, the T/C (dose: 0.5 mg/kg/injection, schedule: Q01DX001 (ip), vehicle: saline) is 102 % of control; the T/C (dose: 0.5 mg/kg/injection, schedule: Q01DX005 (ip), vehicle: saline) is 93 % of control; the T/C (dose: 1.0 mg/kg/injection, schedule: Q01DX001 (ip), vehicle: saline) is 98 % of control and 102 % of control and 105 % of control; the T/C (dose: 1.0 mg/kg/injection, schedule: Q01DX005 (ip), vehicle: saline) was 107 % of control; the T/C (dose: 2.0 mg/kg/injection, schedule: Q01DX001 (ip), vehicle: saline) is 102 % of control and 104 % of control and 110 % of control; the T/C (dose: 2.0 mg/kg/injection, schedule: Q01DX005 (ip), vehicle: saline) is 109 % of control. In addition, the T/C reads like this: (dose: 4.0 mg/kg/injection, schedule: Q01DX001 (ip), vehicle: saline) 96 % of control and 103 % of control and 110 % of control; (dose: 8.0 mg/kg/injection, schedule: Q01DX001 (ip), vehicle: saline) 103 % of control and 113 % of control and 117 % of control.
For `CC(=O)CC(c1ccccc1)c1c(O)c2ccccc2oc1=O` (stereo not given), the T/C (dose: 0.05 mg/kg/injection, schedule: Q01DX005 (ip), vehicle: Klucel (hydroxypropylcellulose) (HPC)) is 113 % of control; the T/C (dose: 0.1 mg/kg/injection, schedule: Q01DX005 (ip), vehicle: Klucel (hydroxypropylcellulose) (HPC)) was 100 % of control and 108 % of control; the T/C (dose: 0.2 mg/kg/injection, schedule: Q01DX005 (ip), vehicle: Klucel (hydroxypropylcellulose) (HPC)) was 105 % of control and 110 % of control; the T/C (dose: 0.4 mg/kg/injection, schedule: Q01DX005 (ip), vehicle: Klucel (hydroxypropylcellulose) (HPC)) is 98 % of control and 104 % of control; the T/C (dose: 0.8 mg/kg/injection, schedule: Q01DX005 (ip), vehicle: Klucel (hydroxypropylcellulose) (HPC)) was 101 % of control and 88 % of control; the T/C (dose: 1.6 mg/kg/injection, schedule: Q01DX005 (ip), vehicle: Klucel (hydroxypropylcellulose) (HPC)) is 98 % of control.
Regarding `CCCC(=O)OCC1OC(n2cnc3c(=S)nc(N)[nH]c32)C(OC(=O)CCC)C1OC(=O)CCC` (stereo not given), the T/C is 102 % of control and 113 % of control (dose: 3.12 mg/kg/injection, schedule: Q01DX005 (ip), vehicle: Klucel (hydroxypropylcellulose) (HPC)); 98 % of control and 104 % of control (dose: 6.25 mg/kg/injection, schedule: Q01DX005 (ip), vehicle: Klucel (hydroxypropylcellulose) (HPC)); 106 % of control (dose: 12.5 mg/kg/injection, schedule: Q01DX005 (ip), vehicle: Klucel (hydroxypropylcellulose) (HPC)).
